# Laboratory results taken from PubChem BioAssay AID248 (DTP/NCI, 2004).
# Where “and” joins values, the source holds several entries; their conditions need not be identical. Identical values can stand only once. Toxic doses and inconclusive results are not listed.
# Test system: L1210 leukemia ip in BDF1 mice, survival T/C
# Assay: NCI In Vivo Anticancer Drug Screen. Data for tumor model L1210 Leukemia (intraperitoneal) in B6D2F1 (BDF1) mice
# Conditions: endpoint: mean survival time, higher = longer survival
# Procedure, shortened: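 Read-out is survival time, reported as the treated-group measurement over the vehicle-control measurement.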
# [1] = dose: 12.5 mg/kg/injection, schedule: Q01DX001 (ip), vehicle: saline with Tween-80
# [2] = dose: 25.0 mg/kg/injection, schedule: Q01DX001 (ip), vehicle: saline with Tween-80
# [3] = dose: 6.25 mg/kg/injection, schedule: Q01DX009 (ip), vehicle: saline
# [4] = dose: 12.5 mg/kg/injection, schedule: Q01DX009 (ip), vehicle: saline
# [5] = dose: 25.0 mg/kg/injection, schedule: Q01DX009 (ip), vehicle: saline
# [6] = dose: 25.0 mg/kg/injection, schedule: Q04DX003 (ip), vehicle: saline
# [7] = dose: 50.0 mg/kg/injection, schedule: Q01DX009 (ip), vehicle: saline
# [8] = dose: 50.0 mg/kg/injection, schedule: Q04DX003 (ip), vehicle: saline
# [9] = dose: 100.0 mg/kg/injection, schedule: Q01DX001 (ip), vehicle: saline
# [10] = dose: 200.0 mg/kg/injection, schedule: Q01DX001 (ip), vehicle: saline
# [11] = dose: 400.0 mg/kg/injection, schedule: Q01DX001 (ip), vehicle: saline
# [12] = dose: 100.0 mg/kg/injection, schedule: Q01DX001 (ip), vehicle: Klucel (hydroxypropylcellulose) (HPC)
# [13] = dose: 200.0 mg/kg/injection, schedule: Q01DX001 (ip), vehicle: Klucel (hydroxypropylcellulose) (HPC)
# [14] = dose: 400.0 mg/kg/injection, schedule: Q01DX001 (ip), vehicle: Klucel (hydroxypropylcellulose) (HPC)
# [15] = dose: 100.0 mg/kg/injection, schedule: Q01DX009 (ip), vehicle: saline with Tween-80
# [16] = dose: 200.0 mg/kg/injection, schedule: Q01DX009 (ip), vehicle: saline with Tween-80
# [17] = dose: 50.0 mg/kg/injection, schedule: Q01DX001 (ip), vehicle: saline
# [18] = dose: 100.0 mg/kg/injection, schedule: Q04DX003 (ip), vehicle: Klucel (hydroxypropylcellulose) (HPC)
# [19] = dose: 200.0 mg/kg/injection, schedule: Q04DX003 (ip), vehicle: Klucel (hydroxypropylcellulose) (HPC)
# [20] = dose: 400.0 mg/kg/injection, schedule: Q04DX003 (ip), vehicle: Klucel (hydroxypropylcellulose) (HPC)
# [21] = dose: 100.0 mg/kg/injection, schedule: Q01DX009 (ip), vehicle: Klucel (hydroxypropylcellulose) (HPC)
# [22] = dose: 200.0 mg/kg/injection, schedule: Q01DX009 (ip), vehicle: Klucel (hydroxypropylcellulose) (HPC)
# [23] = dose: 400.0 mg/kg/injection, schedule: Q01DX009 (ip), vehicle: Klucel (hydroxypropylcellulose) (HPC)
structure (smiles),measurement,setting,value
Cc1nnc(NN)nc1C,T/C,"dose: 6.25 mg/kg/injection, schedule: Q01DX009 (ip), vehicle: saline with Tween-80",101 % of control
same,T/C,"dose: 6.25 mg/kg/injection, schedule: Q04DX003 (ip), vehicle: saline with Tween-80",100 % of control
same,T/C,[1],112 % of control
same,T/C,"dose: 12.5 mg/kg/injection, schedule: Q01DX009 (ip), vehicle: saline with Tween-80",103 % of control
same,T/C,"dose: 12.5 mg/kg/injection, schedule: Q04DX003 (ip), vehicle: saline with Tween-80",103 % of control
same,T/C,[2],100 % of control
same,T/C,"dose: 25.0 mg/kg/injection, schedule: Q04DX003 (ip), vehicle: saline with Tween-80",95 % of control
CNCCOC(c1ccccc1)c1ccccc1C (stereo not drawn),T/C,"dose: 3.12 mg/kg/injection, schedule: Q01DX009 (ip), vehicle: saline",107 % of control
same,T/C,"dose: 5.0 mg/kg/injection, schedule: Q01DX001 (ip), vehicle: saline",103 % of control
same,T/C,[3],96 % of control
same,T/C,"dose: 10.0 mg/kg/injection, schedule: Q01DX001 (ip), vehicle: saline",100 % of control
same,T/C,[4],101 % of control
same,T/C,"dose: 20.0 mg/kg/injection, schedule: Q01DX001 (ip), vehicle: saline",105 % of control
same,T/C,[5],101 % of control
same,T/C,[6],94 % of control
same,T/C,"dose: 40.0 mg/kg/injection, schedule: Q01DX001 (ip), vehicle: saline",100 % of control
same,T/C,[7],106 % of control
same,T/C,[8],108 % of control
same,T/C,"dose: 80.0 mg/kg/injection, schedule: Q01DX001 (ip), vehicle: saline",103 % of control
CS(=O)(=O)Oc1c(Cl)cc(Cl)cc1Sc1cc(Cl)cc(Cl)c1OS(C)(=O)=O,T/C,"dose: 100.0 mg/kg/injection, schedule: Q01DX001 (ip), vehicle: carboxymethylcellulose (CMC)",95 % of control
same,T/C,"dose: 200.0 mg/kg/injection, schedule: Q01DX001 (ip), vehicle: carboxymethylcellulose (CMC)",104 % of control
same,T/C,"dose: 400.0 mg/kg/injection, schedule: Q01DX001 (ip), vehicle: carboxymethylcellulose (CMC)",101 % of control
OC/C=C\CO,T/C,[9],97 % of control and 103 % of control
same,T/C,[10],97 % of control and 100 % of control
same,T/C,[11],97 % of control and 105 % of control
COc1cc(C(=O)Nc2ccccc2)cc(OC)c1OC,T/C,"dose: 100.0 mg/kg/injection, schedule: Q04DX002 (ip), vehicle: saline with Tween-80",102 % of control
same,T/C,"dose: 200.0 mg/kg/injection, schedule: Q04DX002 (ip), vehicle: saline with Tween-80",98 % of control
same,T/C,"dose: 400.0 mg/kg/injection, schedule: Q04DX002 (ip), vehicle: saline with Tween-80",95 % of control
CN1CCc2ccc(Oc3cccc4c3CCN(C)C4)cc2C1,T/C,"dose: 75.0 mg/kg/injection, schedule: Q01DX001 (ip), vehicle: other",112 % of control
same,T/C,"dose: 150.0 mg/kg/injection, schedule: Q01DX001 (ip), vehicle: other",92 % of control
Cc1nc(N)nc(N)c1CCCOc1ccc(N)cc1,T/C,[12],103 % of control
same,T/C,[13],97 % of control
same,T/C,[14],100 % of control
Cc1ccc(S(=O)(=O)NC(=O)N(CCCl)N=O)cc1,T/C,"dose: 10.0 mg/kg/injection, schedule: Q01DX001 (ip), vehicle: other",113 % of control
same,T/C,"dose: 40.0 mg/kg/injection, schedule: Q01DX001 (ip), vehicle: other",216 % of control
same,T/C,"dose: 62.0 mg/kg/injection, schedule: Q01DX001 (ip), vehicle: other",220 % of control
same,T/C,"dose: 93.0 mg/kg/injection, schedule: Q01DX001 (ip), vehicle: other",307 % of control
same,T/C,"dose: 187.0 mg/kg/injection, schedule: Q01DX001 (ip), vehicle: other",168 % of control
COc1ccc(OC)c(C2N(Cc3ccc(N(C)C)cc3)CCCN2Cc2ccc(N(C)C)cc2)c1,T/C,"dose: 50.0 mg/kg/injection, schedule: Q01DX009 (ip), vehicle: saline with Tween-80",93 % of control
same,T/C,[15],93 % of control
same,T/C,[16],90 % of control
Cc1ncc(N)c2c1OC(C)(C)OC2,T/C,[17],91 % of control
CC1(C)N=C1c1ccccc1,T/C,"dose: 100.0 mg/kg/injection, schedule: Q04DX002 (ip), vehicle: saline",98 % of control
same,T/C,"dose: 200.0 mg/kg/injection, schedule: Q04DX002 (ip), vehicle: saline",117 % of control
Cc1cc(C)c(C(=O)OC(C)CNC2CCCCC2)c(C)c1 (stereo not drawn),T/C,"dose: 75.0 mg/kg/injection, schedule: Q01DX001 (ip), vehicle: carboxymethylcellulose (CMC)",96 % of control
same,T/C,"dose: 150.0 mg/kg/injection, schedule: Q01DX001 (ip), vehicle: carboxymethylcellulose (CMC)",102 % of control
O/N=C\c1ccccc1Cl,T/C,[15],100 % of control
same,T/C,[18],100 % of control
same,T/C,[16],105 % of control
same,T/C,[19],100 % of control
same,T/C,[20],96 % of control
O=[N+]([O-])c1ccc(NCc2ccccc2O)cc1,T/C,"dose: 75.0 mg/kg/injection, schedule: Q04DX003 (ip), vehicle: other",110 % of control
same,T/C,[12],101 % of control
same,T/C,"dose: 150.0 mg/kg/injection, schedule: Q04DX003 (ip), vehicle: other",97 % of control
same,T/C,[13],106 % of control
same,T/C,"dose: 300.0 mg/kg/injection, schedule: Q04DX003 (ip), vehicle: other",103 % of control
same,T/C,[14],101 % of control
CC(C)(C)OC(=O)NNC(=O)C(CSC(c1ccccc1)c1ccccc1)N1C(=O)c2ccccc2C1=O (stereo not drawn),T/C,[21],101 % of control
same,T/C,[18],90 % of control
same,T/C,[22],94 % of control
same,T/C,[19],94 % of control
same,T/C,[23],101 % of control
same,T/C,[20],99 % of control
CCC(=O)OC1(c2ccccc2)CCN(C)C1C (stereo not drawn),T/C,[3],101 % of control
same,T/C,[4],97 % of control
same,T/C,[5],103 % of control
same,T/C,[6],103 % of control
same,T/C,[7],111 % of control
same,T/C,[8],105 % of control
same,T/C,"dose: 100.0 mg/kg/injection, schedule: Q01DX009 (ip), vehicle: saline",103 % of control
same,T/C,"dose: 100.0 mg/kg/injection, schedule: Q04DX003 (ip), vehicle: saline",100 % of control
Brc1ccc(N=N/C(=N/Nc2ccccc2)c2ccc(/C=N/Nc3ccccc3)cc2)cc1,T/C,[17],95 % of control
same,T/C,[9],101 % of control
same,T/C,[10],95 % of control
same,T/C,[11],91 % of control
Fc1ccc(NC2(c3nnnn3C3CCCCC3)CCNCC2)cc1,T/C,"dose: 6.25 mg/kg/injection, schedule: Q01DX001 (ip), vehicle: saline with Tween-80",102 % of control
same,T/C,[1],100 % of control
same,T/C,[2],98 % of control
O=C(Nc1cccc(C(F)(F)F)c1)Oc1ccc(F)cc1,T/C,[12],104 % of control
same,T/C,[21],107 % of control and 116 % of control
same,T/C,"dose: 100.0 mg/kg/injection, schedule: Q04DX002 (ip), vehicle: Klucel (hydroxypropylcellulose) (HPC)",92 % of control
same,T/C,[18],94 % of control
same,T/C,[13],109 % of control
same,T/C,[22],104 % of control and 115 % of control
same,T/C,"dose: 200.0 mg/kg/injection, schedule: Q04DX002 (ip), vehicle: Klucel (hydroxypropylcellulose) (HPC)",93 % of control and 92 % of control
same,T/C,[19],99 % of control
same,T/C,[14],98 % of control
same,T/C,[23],104 % of control and 113 % of control
same,T/C,"dose: 400.0 mg/kg/injection, schedule: Q04DX002 (ip), vehicle: Klucel (hydroxypropylcellulose) (HPC)",102 % of control and 108 % of control
same,T/C,[20],105 % of control
CCCCCCCCC1SC1CCCCCCCC(=O)NCCCOCCOCCOCC (stereo not drawn),T/C,[18],96 % of control
same,T/C,[19],100 % of control
same,T/C,[20],96 % of control
O=c1cc(CCl)occ1O,T/C,"dose: 50.0 mg/kg/injection, schedule: Q04DX003 (ip), vehicle: Klucel (hydroxypropylcellulose) (HPC)",95 % of control
same,T/C,[18],98 % of control
same,T/C,[19],97 % of control
NC(CCc1c[nH]c(=O)[nH]c1=O)C(=O)O (stereo not drawn),T/C,[17],104 % of control
same,T/C,[9],100 % of control
same,T/C,[10],98 % of control
same,T/C,[11],110 % of control
O=C1OC(=O)C2(Br)C3C=CC(CC3)C12Br (stereo not drawn),T/C,"dose: 100.0 mg/kg/injection, schedule: Q04DX003 (ip), vehicle: saline with Tween-80",93 % of control
same,T/C,"dose: 200.0 mg/kg/injection, schedule: Q04DX003 (ip), vehicle: saline with Tween-80",96 % of control
same,T/C,"dose: 400.0 mg/kg/injection, schedule: Q04DX003 (ip), vehicle: saline with Tween-80",98 % of control
